These results are taken from ChEMBL document CHEMBL5647694, “Novel orally bioavailable EZH1/2 dual inhibitors with greater antitumor efficacy than an EZH2 selective inhibitor” (Cancer Sci, 2017).

In one data set the test system is KARPAS-422. Nature of the data set: Antitumor activity against human KARPAS-422 cells xenografted in CB17/Icr-Prkdcscid/CrlCrlj mouse assessed as inhibition of tumor growth administered orally BID for 14 days. The class given is functional, cell-based. The following applies: dose 3.1-50 mg/kg, route po, time 14.0 day.
Data set [1] concerns the target Protein kinase C iota type (Homo sapiens) (UniProt P41743). As to the kind of experiment: Inhibition of N-terminal GST-fused human full length PKC-iota (1 to 587 residues ) expressed in baculovirus expression system using PKC peptide as substrate at 1 uM in presence of ATP by Mobility shift assay.
Data set [2] is described as follows: Toxicity in Crl:CD Sprague-Dawley rat assessed as platelet count in blood at 100 mg/kg, po administered daily for 14 days (reference value: 1160+/-65.1 10^3/uL). The class given is organism-based. The following applies: in vivo, 336 h, time 14 day.
Data set [3] can be described thus: Toxicity in Crl:CD Sprague-Dawley rat assessed as aspartate aminotransferase level in blood at 100 mg/kg, po administered daily for 14 days (reference value: 72+/-5.03 U/L). Conditions: in vivo, 336 h, time 14 day. The class given is organism-based.
Data set [4] in a line: Mean AUC (0-24 hrs) in Crl:CD Sprague-Dawley rat at 100 mg/kg, po administered daily for 14 days by LC/MS/MS analysis. The class given is ADME, organism-based. The following applies: in vivo, time 14 day.
Data set [5] is described as follows: Toxicity in Crl:CD Sprague-Dawley rat assessed as white blood cell count in blood at 100 mg/kg, po administered daily for 14 days (reference value: 9.55+/-1.72 10^3/uL). The following applies: in vivo, 336 h, time 14 day. The class given is organism-based.
The nature of data set [6]: Toxicity in Crl:CD Sprague-Dawley rat assessed as total cholesterol level in blood at 100 mg/kg, po administered daily for 14 days (reference value: 63.5 +/-[…]). The class given is organism-based. The following applies: in vivo, 336 h, time 14 day.
Data set [7] can be described thus: Toxicity in Crl:CD Sprague-Dawley rat assessed as basophil count in blood at 100 mg/kg, po administered daily for 14 days (reference value: 0.023+/-0.018 10^3/uL). The class given is organism-based. The following applies: in vivo, 336 h, time 14 day.
Data set [8] concerns the target Histone-lysine N-methyltransferase EHMT2 (Homo sapiens, UniProt Q96KQ7). Nature of the data set: Inhibition of human G9a using Histone H3 (1-21 residues) and [3H]SAM as substrate incubated for 30 mins to 1 hr by HotSpot kinase assay.
The next data set concerns LNCaP-Clone-FGC. As to the kind of experiment: Antitumor activity against human LNCaP clone FGC cells assessed as cell growth inhibition treated for 10 to 15 days. The class given is functional. The following applies: time 10-15 day.
The test system of the next data set is MDA-MB-415. As to the kind of experiment: Antitumor activity against human MDA-MB-415 cells assessed as cell growth inhibition treated for 10 to 15 days. The class given is functional. The following applies: time 10-15 day.
The subject of a further data set is JM1. As to the kind of experiment: Antitumor activity against human JM1 cells assessed as cell growth inhibition treated for 10 to 15 days. The following applies: time 10-15 day. The class given is functional.
The test system of a further data set is BT-474. As to the kind of experiment: Antitumor activity against human BT-474 cells assessed as cell growth inhibition treated for 10 to 15 days. The class given is functional. The following applies: time 10-15 day.
For data set [9], the target named is Serine/threonine-protein kinase WNK1 (Homo sapiens) (UniProt Q9H4A3). As to the kind of experiment: Inhibition of N-terminal GST-fused human WNK1 catalytic domain (1 to 491 residues) expressed in baculovirus expression system using SPAKtide as substrate at 1 uM in presence of ATP by Mobility shift assay.
Sequence of Serine/threonine-protein kinase WNK1 (Homo sapiens) (Q9H4A3 whole entry, looked up, the tested form may be a part): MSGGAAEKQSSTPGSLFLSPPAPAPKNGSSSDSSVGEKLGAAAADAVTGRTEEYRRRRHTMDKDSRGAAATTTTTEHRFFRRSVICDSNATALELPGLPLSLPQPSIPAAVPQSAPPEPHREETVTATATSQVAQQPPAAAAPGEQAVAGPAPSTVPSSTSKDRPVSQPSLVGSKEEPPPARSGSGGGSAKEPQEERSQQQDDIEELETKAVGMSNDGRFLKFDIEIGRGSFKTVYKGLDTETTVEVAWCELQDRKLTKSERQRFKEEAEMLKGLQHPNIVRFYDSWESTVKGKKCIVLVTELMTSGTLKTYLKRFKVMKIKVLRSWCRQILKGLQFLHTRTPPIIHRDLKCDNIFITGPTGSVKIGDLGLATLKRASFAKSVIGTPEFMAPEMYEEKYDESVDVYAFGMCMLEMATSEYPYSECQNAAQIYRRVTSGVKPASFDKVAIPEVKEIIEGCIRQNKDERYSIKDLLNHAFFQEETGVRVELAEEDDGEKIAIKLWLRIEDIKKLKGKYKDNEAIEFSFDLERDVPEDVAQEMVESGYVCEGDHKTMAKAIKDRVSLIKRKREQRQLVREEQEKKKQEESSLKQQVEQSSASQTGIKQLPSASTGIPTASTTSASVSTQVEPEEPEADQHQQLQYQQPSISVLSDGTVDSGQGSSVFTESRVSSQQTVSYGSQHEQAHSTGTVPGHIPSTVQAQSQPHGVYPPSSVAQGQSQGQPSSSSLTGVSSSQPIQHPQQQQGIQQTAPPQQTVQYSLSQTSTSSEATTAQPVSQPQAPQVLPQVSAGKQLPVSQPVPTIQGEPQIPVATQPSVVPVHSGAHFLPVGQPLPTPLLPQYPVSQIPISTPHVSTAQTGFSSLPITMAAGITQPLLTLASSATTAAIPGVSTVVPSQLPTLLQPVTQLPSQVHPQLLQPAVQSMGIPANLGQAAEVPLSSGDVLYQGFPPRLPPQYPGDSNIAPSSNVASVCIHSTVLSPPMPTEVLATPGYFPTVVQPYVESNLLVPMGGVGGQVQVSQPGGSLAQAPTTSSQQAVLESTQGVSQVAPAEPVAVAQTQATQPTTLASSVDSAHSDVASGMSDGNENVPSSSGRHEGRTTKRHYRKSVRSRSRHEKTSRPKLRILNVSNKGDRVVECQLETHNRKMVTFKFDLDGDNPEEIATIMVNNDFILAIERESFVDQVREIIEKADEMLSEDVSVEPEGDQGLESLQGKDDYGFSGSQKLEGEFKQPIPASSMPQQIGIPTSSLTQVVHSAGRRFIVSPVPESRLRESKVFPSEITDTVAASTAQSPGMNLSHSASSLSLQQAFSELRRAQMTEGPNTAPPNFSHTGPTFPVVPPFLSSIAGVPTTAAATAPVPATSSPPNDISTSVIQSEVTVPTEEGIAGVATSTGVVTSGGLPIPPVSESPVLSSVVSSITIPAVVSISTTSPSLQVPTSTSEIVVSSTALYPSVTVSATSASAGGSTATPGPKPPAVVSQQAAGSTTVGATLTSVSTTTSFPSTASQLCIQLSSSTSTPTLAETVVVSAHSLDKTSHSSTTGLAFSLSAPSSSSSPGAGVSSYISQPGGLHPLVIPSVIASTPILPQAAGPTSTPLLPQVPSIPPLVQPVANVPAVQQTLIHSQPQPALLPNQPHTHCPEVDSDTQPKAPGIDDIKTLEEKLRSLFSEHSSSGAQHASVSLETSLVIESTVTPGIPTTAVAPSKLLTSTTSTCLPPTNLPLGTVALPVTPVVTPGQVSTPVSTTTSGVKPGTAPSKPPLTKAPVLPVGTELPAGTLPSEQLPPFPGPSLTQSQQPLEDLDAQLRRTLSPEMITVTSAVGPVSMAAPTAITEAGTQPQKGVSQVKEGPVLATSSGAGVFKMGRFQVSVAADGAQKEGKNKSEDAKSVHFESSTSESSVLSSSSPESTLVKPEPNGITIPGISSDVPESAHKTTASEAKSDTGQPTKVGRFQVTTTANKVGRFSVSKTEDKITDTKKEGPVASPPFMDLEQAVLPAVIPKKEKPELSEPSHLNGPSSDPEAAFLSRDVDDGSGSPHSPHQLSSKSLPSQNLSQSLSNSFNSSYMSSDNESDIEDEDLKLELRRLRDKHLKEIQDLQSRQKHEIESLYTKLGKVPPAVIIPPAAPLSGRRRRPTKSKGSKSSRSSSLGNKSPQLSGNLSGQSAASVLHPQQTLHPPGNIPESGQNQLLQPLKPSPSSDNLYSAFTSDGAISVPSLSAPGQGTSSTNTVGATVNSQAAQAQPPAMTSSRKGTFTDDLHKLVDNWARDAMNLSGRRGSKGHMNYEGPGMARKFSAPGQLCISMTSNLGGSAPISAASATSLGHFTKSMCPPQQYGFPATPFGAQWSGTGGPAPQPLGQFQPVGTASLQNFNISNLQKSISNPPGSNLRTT
In data set [10] the target is CDK7/Cyclin H/MNAT1 (Homo sapiens) (UniProt P51946+P50613+P51948). As to the kind of experiment: Inhibition of N-terminal GST-tagged full length human CDK7 (1 to 346 residues)/human CyclinH (1 to 323 residues)/human MAT1 (1 to 309 residues) expressed in baculovirus-infected Sf21 cells using CTD3 peptide as substrate at 1 uM in presence of ATP by Mobility shift assay.

The test system of the next data set is RPMI-8226. As to the kind of experiment: Antitumor activity against human RPMI-8226 cells assessed as cell growth inhibition treated for 10 to 15 days. The class given is functional. The following applies: time 10-15 day.
For the next data set, the system named is NCI-H2081. As to the kind of experiment: Antitumor activity against human NCI-H2081 cells assessed as cell growth inhibition treated for 10 to 15 days. The class given is functional. Conditions: time 10-15 day.
The subject of the next data set is LS-411N. As to the kind of experiment: Antitumor activity against human LS-411N cells assessed as cell growth inhibition treated for 10 to 15 days. The class given is functional. The following applies: time 10-15 day.
The next data set relates to DB. Nature of the data set: Antitumor activity against human DB cells assessed as cell growth inhibition treated for 10 to 15 days. The class given is functional. Conditions: time 10-15 day.
For the next data set, the system named is ACHN. Nature of the data set: Antitumor activity against human ACHN cells assessed as cell growth inhibition treated for 10 to 15 days. The class given is functional. Conditions: time 10-15 day.
Another data set concerns H9. As to the kind of experiment: Antitumor activity against human H9 cells assessed as cell growth inhibition treated for 10 to 15 days. The class given is functional. Conditions: time 10-15 day.
For the next data set, the system named is SNU-16. As to the kind of experiment: Antitumor activity against human SNU-16 cells assessed as cell growth inhibition treated for 10 to 15 days. The class given is functional. Conditions: time 10-15 day.
Data set [11] deals with Ephrin type-B receptor 2 (Homo sapiens) (UniProt P29323). Nature of the data set: Inhibition of N-terminal GST-fused human EPHB2 cytoplasmic domain (581 to 987 residues) expressed in baculovirus-infected Sf21 cells using Blk/Lyntide as substrate at 1 uM in presence of ATP by Mobility shift assay.
Sequence of Ephrin type-B receptor 2 (Homo sapiens) (P29323 whole entry, the tested form may be a part): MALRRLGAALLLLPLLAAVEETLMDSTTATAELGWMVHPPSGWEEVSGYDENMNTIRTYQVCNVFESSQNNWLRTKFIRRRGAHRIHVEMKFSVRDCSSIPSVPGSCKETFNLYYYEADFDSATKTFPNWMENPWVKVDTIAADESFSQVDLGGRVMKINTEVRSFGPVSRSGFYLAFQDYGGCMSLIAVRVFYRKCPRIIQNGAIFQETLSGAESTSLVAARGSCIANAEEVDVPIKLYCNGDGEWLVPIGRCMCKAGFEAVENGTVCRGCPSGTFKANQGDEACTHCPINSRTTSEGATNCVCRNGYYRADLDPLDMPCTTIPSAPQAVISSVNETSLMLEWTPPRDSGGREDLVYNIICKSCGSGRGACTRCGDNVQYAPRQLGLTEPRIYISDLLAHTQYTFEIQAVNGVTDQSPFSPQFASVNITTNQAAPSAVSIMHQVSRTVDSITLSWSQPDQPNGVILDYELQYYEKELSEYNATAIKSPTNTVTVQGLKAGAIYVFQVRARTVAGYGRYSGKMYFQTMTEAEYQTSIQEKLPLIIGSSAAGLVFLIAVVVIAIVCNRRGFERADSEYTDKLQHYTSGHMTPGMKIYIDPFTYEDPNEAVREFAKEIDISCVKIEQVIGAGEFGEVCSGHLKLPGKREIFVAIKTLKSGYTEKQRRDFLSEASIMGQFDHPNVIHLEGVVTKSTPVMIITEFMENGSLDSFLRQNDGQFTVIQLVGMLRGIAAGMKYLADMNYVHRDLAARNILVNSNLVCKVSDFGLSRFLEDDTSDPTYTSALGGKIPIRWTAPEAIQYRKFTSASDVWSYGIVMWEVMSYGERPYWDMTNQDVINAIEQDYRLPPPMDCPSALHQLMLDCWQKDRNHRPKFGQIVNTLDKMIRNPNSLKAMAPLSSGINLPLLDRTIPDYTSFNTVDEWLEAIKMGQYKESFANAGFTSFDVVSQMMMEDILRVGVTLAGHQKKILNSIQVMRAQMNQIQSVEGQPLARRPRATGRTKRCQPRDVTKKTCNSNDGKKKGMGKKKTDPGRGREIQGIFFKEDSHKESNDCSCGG
For data set [12], the target named is Protein arginine N-methyltransferase 6 (Homo sapiens, UniProt Q96LA8). Nature of the data set: Inhibition of human PRMT6 using Histone H3 and [3H]SAM as substrate incubated for 30 mins to 1 hr by HotSpot kinase assay.
A further data set concerns HCC1954. Nature of the data set: Antitumor activity against human HCC1954 cells assessed as cell growth inhibition treated for 10 to 15 days. The class given is functional. The following applies: time 10-15 day.
Another data set relates to Z-138. Nature of the data set: Antitumor activity against human Z138 cells assessed as cell growth inhibition treated for 10 to 15 days. The class given is functional. Conditions: time 10-15 day.
A further data set concerns THP-1. As to the kind of experiment: Antitumor activity against human THP-1 cells assessed as cell growth inhibition treated for 10 to 15 days. The class given is functional. The following applies: time 10-15 day.
A further data set deals with JeKo-1. Nature of the data set: Antitumor activity against human JeKo-1 cells assessed as cell growth inhibition treated for 10 to 15 days. The class given is functional. The following applies: time 10-15 day.
Another data set concerns SK-ES1. As to the kind of experiment: Antitumor activity against human SK-ES1 cells assessed as cell growth inhibition treated for 10 to 15 days. Conditions: time 10-15 day. The class given is functional.
In a further data set the test system is KMS-11. Nature of the data set: Antitumor activity against human KMS-11 cells assessed as cell growth inhibition treated for 10 to 15 days. The class given is functional. Conditions: time 10-15 day.
For data set [13], the target named is DNA (cytosine-5)-methyltransferase 3B (Homo sapiens, UniProt Q9UBC3). Nature of the data set: Inhibition of human DNMT3b using lambda DNA and [3H]SAM as substrate incubated for 30 mins to 1 hr by HotSpot kinase assay.
Another data set relates to CCRF-CEM. Nature of the data set: Antitumor activity against human CCRF-CEM cells assessed as cell growth inhibition treated for 10 to 15 days. The class given is functional. The following applies: time 10-15 day.
In data set [14] the target is Protein arginine N-methyltransferase 1 (Homo sapiens, UniProt Q99873). As to the kind of experiment: Inhibition of human PRMT1 using Histone H4 and [3H]SAM as substrate incubated for 30 mins to 1 hr by HotSpot kinase assay.
Sequence of Protein arginine N-methyltransferase 1 (Q99873 whole entry): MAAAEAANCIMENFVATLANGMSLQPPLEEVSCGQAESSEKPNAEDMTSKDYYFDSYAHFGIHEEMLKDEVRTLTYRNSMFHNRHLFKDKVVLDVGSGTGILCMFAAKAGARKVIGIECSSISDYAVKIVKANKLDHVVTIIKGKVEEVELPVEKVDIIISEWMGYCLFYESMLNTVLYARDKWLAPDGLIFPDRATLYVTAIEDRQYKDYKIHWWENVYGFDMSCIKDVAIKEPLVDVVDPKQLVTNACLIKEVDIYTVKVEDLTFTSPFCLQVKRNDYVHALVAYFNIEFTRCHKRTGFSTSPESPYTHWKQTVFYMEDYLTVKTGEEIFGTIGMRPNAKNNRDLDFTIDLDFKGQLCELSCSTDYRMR
The next data set has as its system CWR22R. Nature of the data set: Antitumor activity against human 22Rv1 cells assessed as cell growth inhibition treated for 10 to 15 days. The class given is functional. The following applies: time 10-15 day.
Data set [15] in a line: Antitumor activity against human HCC202 cells assessed as cell growth inhibition treated for 10 to 15 days. The class given is functional. The following applies: time 10-15 day.
For the next data set, the system named is U-937. As to the kind of experiment: Antitumor activity against human U-937 cells assessed as cell growth inhibition treated for 10 to 15 days. The class given is functional. The following applies: time 10-15 day.
The target in data set [16] is Ephrin type-A receptor 2 (Homo sapiens) (UniProt P29317). Nature of the data set: Inhibition of N-terminal GST-fused human EPHA2 cytoplasmic domain (572 to 976 residues) expressed in baculovirus-infected Sf21 cells using Blk/Lyntide as substrate at 1 uM in presence of ATP by Mobility shift assay.
Sequence of Ephrin type-A receptor 2 (Homo sapiens) (P29317 whole entry, the tested form may be a part): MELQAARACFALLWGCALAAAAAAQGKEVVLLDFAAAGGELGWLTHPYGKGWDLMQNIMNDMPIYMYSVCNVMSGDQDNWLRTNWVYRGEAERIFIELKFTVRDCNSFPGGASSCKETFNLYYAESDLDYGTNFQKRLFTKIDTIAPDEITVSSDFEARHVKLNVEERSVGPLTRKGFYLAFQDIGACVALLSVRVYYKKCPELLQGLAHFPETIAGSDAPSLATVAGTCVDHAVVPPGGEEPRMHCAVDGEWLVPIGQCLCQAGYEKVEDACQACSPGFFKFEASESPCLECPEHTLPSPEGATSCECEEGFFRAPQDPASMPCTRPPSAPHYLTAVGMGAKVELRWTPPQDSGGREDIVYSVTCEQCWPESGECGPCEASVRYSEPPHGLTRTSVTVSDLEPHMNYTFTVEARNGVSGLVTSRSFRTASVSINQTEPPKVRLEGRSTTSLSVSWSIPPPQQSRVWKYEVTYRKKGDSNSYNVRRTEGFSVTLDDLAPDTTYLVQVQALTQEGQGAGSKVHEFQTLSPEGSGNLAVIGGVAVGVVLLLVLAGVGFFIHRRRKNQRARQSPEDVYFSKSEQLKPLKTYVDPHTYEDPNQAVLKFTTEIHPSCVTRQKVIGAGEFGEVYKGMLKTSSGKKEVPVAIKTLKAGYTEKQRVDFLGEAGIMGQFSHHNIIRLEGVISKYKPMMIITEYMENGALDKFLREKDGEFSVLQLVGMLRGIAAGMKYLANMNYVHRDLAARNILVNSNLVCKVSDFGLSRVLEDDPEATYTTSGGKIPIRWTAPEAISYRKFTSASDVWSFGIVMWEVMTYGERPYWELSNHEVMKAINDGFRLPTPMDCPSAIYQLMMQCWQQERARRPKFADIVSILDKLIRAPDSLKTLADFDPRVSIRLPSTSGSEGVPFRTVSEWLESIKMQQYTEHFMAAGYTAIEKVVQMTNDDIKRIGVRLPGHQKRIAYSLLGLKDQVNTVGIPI

Each structure is given as a SMILES string.

Turning to `Cc1cc(C)c(CNC(=O)c2cc(Br)c3c(c2C)O[C@@](C)([C@H]2CC[C@H](N(C)C)CC2)O3)c(=O)[nH]1`, the Activity result was “Dose-Dependent Effect” in the data set on KARPAS-422; 1120 10^3 /uL in data set [2]; 71.8 U/L in data set [3]; 4.56 10^3 /uL in [5]; 64 mg/dL in data set [6]; 0.01 10^3 /uL in data set [7]. In addition, in data set [1], the inhibition was found to be 22.3%. In addition, in data set [4], the AUC at 336 h is 27.9 µM·h.
Turning to `Cc1cc(C)c(CNC(=O)c2cc(Cl)c3c(c2C)O[C@@](C)([C@H]2CC[C@H](N(C)C)CC2)O3)c(=O)[nH]1` [VALEMETOSTAT], the IC50 in data set [8], in data set [12], in data set [13] and in data set [14] was 100 µM each time. The GI50 in the data set with LNCaP-Clone-FGC is 0.00553 µM; with MDA-MB-415, 0.0247 µM; in the data set with JM1, greater than 1 µM; in the data set on BT-474, greater than 1 µM; in the data set with RPMI-8226 it was 0.00191 µM; in the data set on NCI-H2081 it was 0.982 µM. For the same compound, the GI50 in the data set on LS-411N was greater than 1 µM; in the data set with DB, 0.00411 µM; in the data set on ACHN, greater than 1 µM; in the data set with H9, 0.00958 µM; in the data set with SNU-16, greater than 1 µM; in the data set with HCC1954, greater than 1 µM. In addition, the GI50 in the data set on Z-138 was 0.0191 µM; in the data set on THP-1, 0.0681 µM; in the data set with JeKo-1 it was 0.0922 µM; with SK-ES1, greater than 1 µM; in the data set on KMS-11 it was 0.0103 µM; with CCRF-CEM, greater than 1 µM. The values for the GI50 (in the data set on CWR22R; in data set [15]; with U-937) were 0.0377 µM, greater than 1 µM and greater than 1 µM, respectively. Moreover, the inhibition in data set [9] is 3.4%; in data set [10], -6.7%; in data set [11] it was -6.2%; in data set [16], -6.7%.
